Among the data in US12054494B2, “Compound with anticancer activity” (KYOWA KIRIN CO., LTD., priority 2018, dated 2024) are IC90 values, retold here.

This test relates to SU-DHL-4 cells. As to the kind of experiment: Inhibitory effect on cell viability (Cell Counting Kit-8). The class given is cell-based. The note with it: Homo sapiens, 72 hours culture with test compound, concentration showing 90% inhibition rate of cell viability. The protocol:
Inhibitiory Effect on Cell Viability
SU-DHL-4 cells (Code No. ACC 495, Deutsche Sammlung von Mikroorganismen and Zellkulturen GmbH) were cultured at 37° C. using a carbon dioxide incubator (95% air, 5% CO2) in RPMI1640 medium (Code No. 11875-093, Thermo Fisher Scientific) in which inactivated fetal bovine serum (FBS: Code No. 10099-148, Thermo Fisher Scientific) in an amount to give a final concentration of 10 vol % and penicillin/streptomycin solution (PS: Code No. 15140-122, Thermo Fisher Scientific) in an amount to give a final concentration of 1 vol % were added. The cells were passaged twice a week at a volume of 20-40 mL so as to maintain a cell concentration of 1×10^6 cells/mL or less.
The cultured SU-DHL-4 cells were seeded at 2000 cells/well in a transparent 384-well plate (Code No. 781182, Greiner bio-one). After seeding, the cells were precultured at 37° C. in a carbon dioxide gas incubator for 18 to 25 hours. Next, 1, 0.1 or 0.01 mmol/L DMSO solution of the test compound was prepared and a 9-step dilution series were prepared so that the concentration will be 200 times the final concentration in the RPMI1640 medium containing the above FBS and PS, and 1/200 volume of the dilution series were added to each well. At this time, the final concentration of DMSO was adjusted to be 0.1 vol %. After adding the test compound, the cells were cultured at 37° C. in a carbon dioxide gas incubator for 72 hours. Next, 0.020 mL of Cell Counting Kit-8 (Code No. CK04, DOJINDO) solution diluted 2-fold or 4-fold with phosphate buffered saline (PBS) was added to each well. Color reaction was carried out in a carbon dioxide gas incubator at 37° C. for 2 to 3 hours, and the absorbance at a wavelength of 450 nm was measured using SpectraMax 340PC (Molecular Devices). The inhibition rate of cell viability was calculated by the following formula, and the concentration of the test compound (IC90 value) showing a 90% inhibition rate of cell viability was calculated. Inhibition rate of cell viability (%)=100−(A−B)/(C−B)×100 • A: Absorbance of a well containing test compound • B: Absorbance of a well without addition of cells • C: Absorbance of a well without addition of test compound

In turn, `CCC(=O)N1c2ccccc2[C@H](Nc2ccc(NC(=O)Cn3cc(-c4ccc(N[C@@H]5C[C@H](C)N(C(=O)CC)c6ccccc65)cc4)cn3)cc2)C[C@@H]1C` (relative stereo) [Compound 6n, N-(4-(((2S*,4R*)-2-Methyl-1-propionyl-1,2,3,4-tetrahydroquinolin-4-yl)amino)phenyl)-2-(4-(4-(((2S,4R)-2-methyl-1-propionyl-1,2,3,4-tetrahydroquinolin-4-yl)amino)phenyl)-1H-pyrazol-1-yl)acetamide] showed an IC90 of 0.13 nM.

`CCC(=O)N1c2ccccc2[C@H](Nc2ccc(-n3cc(CNC(=O)N4CCC(N[C@@H]5C[C@H](C)N(C(=O)CC)c6ccccc65)CC4)nn3)cc2)C[C@@H]1C` (relative stereo) [Compound 10b, 4-(((2S*,4R*)-2-Methyl-1-propionyl-1,2,3,4-tetrahydroquinolin-4-yl)amino)-N-((1-(4-(((2S,4R)-2-methyl-1-propionyl-1,2,3,4-tetrahydroquinolin-4-yl)amino)phenyl)-1H-1,2,3-triazol-4-yl)methyl)piperidine-1-carboxamide] returned an IC90 of 0.6 nM.

`CCC(=O)N1c2ccccc2[C@H](Nc2ccc(-c3cnn(CCNC(=O)N4CCC(N[C@@H]5C[C@H](C)N(C(=O)CC)c6ccccc65)CC4)c3)cc2)C[C@@H]1C` (relative stereo) [Compound 10d, 4-(((2S*,4R*)-2-Methyl-1-propionyl-1,2,3,4-tetrahydroquinolin-4-yl)amino)-N-(2-(4-(4-(((2S,4R)-2-methyl-1-propionyl-1,2,3,4-tetrahydroquinolin-4-yl)amino)phenyl)-1H-pyrazol-1-yl)ethyl)piperidine-1-carboxamide] gave a concentration for an effect of 90% (IC90) of 3.42 nM. Against the preceding molecule, the IC90 is about 5.7-fold higher.

Regarding `CCC(=O)N1c2ccccc2[C@H](Nc2ccc(NC(=O)C3CN(C(=O)N4CCC(N[C@@H]5C[C@H](C)N(C(=O)CC)c6ccccc65)CC4)C3)cc2)C[C@@H]1C` (relative stereo) [Compound 10e, N-(4-(((2S*,4R*)-2-Methyl-1-propionyl-1,2,3,4-tetrahydroquinolin-4-yl)amino)phenyl)-1-(4-(((2S,4R)-2-methyl-1-propionyl-1,2,3,4-tetrahydroquinolin-4-yl)amino)piperidine-1-carbonyl)azetidine-3-carboxamide], it took 3.59 nM to reach the 90% level (IC90).

Molecule `CCC(=O)N1c2ccccc2[C@H](NCc2ccc(C(=O)N3CC(C(=O)Nc4ccc(N[C@@H]5C[C@H](C)N(C(=O)CC)c6ccccc65)cc4)C3)cc2)C[C@@H]1C` (relative stereo) [Compound 10g, 1-(4-((((2S*,4R*)-2-Methyl-1-propionyl-1,2,3,4-tetrahydroquinolin-4-yl)amino)methyl)benzoyl)-N-(4-(((2S,4R)-2-methyl-1-propionyl-1,2,3,4-tetrahydroquinolin-4-yl)amino)phenyl)azetidine-3-carboxamide] returned an IC90 of 1.15 nM.

The molecule `CCC(=O)N1c2ccccc2[C@H](Nc2ccc(CNCc3cn(-c4ccc(N[C@@H]5C[C@H](C)N(C(=O)CC)c6ccccc65)nc4)nn3)cc2)C[C@@H]1C` (relative stereo) [Compound 10j, 1-((2S,4R)-2-Methyl-4-((4-((((1-(6-(((2S*,4R*)-2-methyl-1-propionyl-1,2,3,4-tetrahydroquinolin-4-yl)amino)pyridin-3-yl)-1H-1,2,3-triazol-4-yl)methyl)amino)methyl)phenyl)amino)-3,4-dihydroquinoline-1(2H)-yl)propan-1-one] yielded an IC90 of 1.73 nM. This IC90 is about 1.5-fold higher than that of the molecule before.

In turn, `CCC(=O)N1c2ccccc2[C@H](Nc2ccc(NC(=O)CCCC(=O)Nc3ccc(N[C@@H]4C[C@H](C)N(C(=O)CC)c5ccccc54)cn3)cc2)C[C@@H]1C` (relative stereo) [Compound 10l, N^1-(4-(((2S,4R)-2-Methyl-1-propionyl-1,2,3,4-tetrahydroquinolin-4-yl)amino)phenyl)-N^5-(5-(((2S*,4R*)-2-methyl-1-propionyl-1,2,3,4-tetrahydroquinolin-4-yl)amino)pyridin-2-yl)glutaramide] gave an IC90 of 1.08 nM.

Take `CCC(=O)N1c2ccccc2[C@H](Nc2ccc(C(=O)N3CCC(C(=O)Nc4ccc(N[C@@H]5C[C@H](C)N(C(=O)CC)c6ccccc65)nc4)CC3)cc2)C[C@@H]1C` (relative stereo) [Compound 10m, 1-(4-(((2S,4R)-2-Methyl-1-propionyl-1,2,3,4-tetrahydroquinolin-4-yl)amino)benzoyl)-N-(6-(((2S*,4R*)-2-methyl-1-propionyl-1,2,3,4-tetrahydroquinolin-4-yl)amino)pyridin-3-yl)piperidine-4-carboxamide]: the IC90 worked out at 30.9 nM.

`CCC(=O)N1c2ccccc2[C@H](Nc2ccc(C(=O)NCC#CC(=O)Nc3ccc(N[C@@H]4C[C@H](C)N(C(=O)CC)c5ccccc54)nc3)cc2)C[C@@H]1C` (relative stereo) [Compound 10n, 4-(((2S,4R)-2-Methyl-1-propionyl-1,2,3,4-tetrahydroquinolin-4-yl)amino)-N-(4-((6-(((2S*,4R*)-2-methyl-1-propionyl-1,2,3,4-tetrahydroquinolin-4-yl)amino)pyridin-3-yl)amino)-4-oxobut-2-yn-1-yl)benzamide] showed an IC90 of 0.01 nM.

Molecule `CCC(=O)N1c2ccccc2[C@H](Nc2ccc(C(=O)NCCC(=O)Nc3ccc(N[C@@H]4C[C@H](C)N(C(=O)CC)c5ccccc54)nc3)cc2)C[C@@H]1C` (relative stereo) [Compound 10o, 4-(((2S,4R)-2-Methyl-1-propionyl-1,2,3,4-tetrahydroquinolin-4-yl)amino)-N-(3-((6-(((2S*,4R*)-2-methyl-1-propionyl-1,2,3,4-tetrahydroquinolin-4-yl)amino)pyridin-3-yl)amino)-3-oxopropyl)benzamide] showed an IC90 of 1.48 nM.

With `CCC(=O)N1c2ccccc2[C@H](NCC2CCN(C(=O)N3CC(C(=O)Nc4ccc(N[C@@H]5C[C@H](C)N(C(=O)CC)c6ccccc65)cc4)C3)CC2)C[C@@H]1C` (relative stereo) [Compound 10p, 1-(4-((((2S*,4R*)-2-Methyl-1-propionyl-1,2,3,4-tetrahydroquinolin-4-yl)amino)methyl)piperidine-1-carbonyl)-N-(4-(((2S,4R)-2-methyl-1-propionyl-1,2,3,4-tetrahydroquinolin-4-yl)amino)phenyl)azetidine-3-carboxamide], it took 47.5 nM to reach the 90% level (IC90).

The molecule `CCC(=O)N1c2ccccc2[C@H](Nc2ccc(NC(=O)CCCC(=O)Nc3ccc(N[C@@H]4C[C@H](C)N(C(=O)CC)c5cc(CCCN)ccc54)cc3)cc2)C[C@@H]1C` (relative stereo) [Compound 10s, N^1-(4-(((2S*,4R*)-7-(3-Aminopropyl)-2-methyl-1-propionyl-1,2,3,4-tetrahydroquinolin-4-yl)amino)phenyl)-N^5-(4-(((2S,4R)-2-methyl-1-propionyl-1,2,3,4-tetrahydroquinolin-4-yl)amino)phenyl)glutaramide] returned an IC90 of 21.7 nM.

In the case of `CCC(=O)N1c2ccccc2[C@H](Nc2ccc(NC(=O)CCCC(=O)Nc3ccc(N[C@@H]4C[C@H](C)N(C(=O)CC)c5cc(/C=C/CN)ccc54)cc3)cc2)C[C@@H]1C` (relative stereo) [Compound 10t, N^1-(4-(((2S*,4R*)-7-((E)-3-Aminoprop-1-en-1-yl)-2-methyl-1-propionyl-1,2,3,4-tetrahydroquinolin-4-yl)amino)phenyl)-N^5-(4-(((2S,4R)-2-methyl-1-propionyl-1,2,3,4-tetrahydroquinolin-4-yl)amino)phenyl)glutaramide], it took 26.3 nM to reach the 90% level (IC90).

`CCC(=O)N1c2ccccc2[C@H](Nc2ccc(NC(=O)CCCC(=O)Nc3ccc(N[C@@H]4C[C@H](C)N(C(=O)CC)c5cc(C6=CCNCC6)ccc54)cc3)cc2)C[C@@H]1C` (relative stereo) [Compound 10u, N^1-(4-(((2S,4R)-2-Methyl-1-propionyl-1,2,3,4-tetrahydroquinolin-4-yl)amino)phenyl)-N^5-(4-(((2S*,4R*)-2-methyl-1-propionyl-7-(1,2,3,6-tetrahydropyridin-4-yl)-1,2,3,4-tetrahydroquinolin-4-yl)amino)phenyl)glutaramide]: the IC90 was 15.9 nM.

As to `CCC(=O)N1c2ccccc2[C@H](NCCCC2CCN(C(=O)Nc3ccc(N[C@@H]4C[C@H](C)N(C(=O)CC)c5ccccc54)cc3)CC2)C[C@@H]1C` (relative stereo) [Compound 12d, N-(4-(((2S,4R)-2-Methyl-1-propionyl-1,2,3,4-tetrahydroquinolin-4-yl)amino)phenyl)-4-(3-(((2S*,4R*)-2-methyl-1-propionyl-1,2,3,4-tetrahydroquinolin-4-yl)amino)propyl)piperidine-1-carboxamide], the 90% effect level (IC90) was put at 34.9 nM.
